The target of assay [1] is Jack bean (Canavalia ensiformis) urease (Canavalia ensiformis (Jack bean) (Dolichos ensiformis), UniProt P07374). The assay can be described thus: biochemical. The class given is biochemical. Conditions: for urease inhibitory activity compared with standard thiourea: in words. Here is the method: The Schiff bases of thiazoles were evaluated for their urease inhibitory potential by using the following protocol:
Finally the results were processed by software SoftMax Pro (Molecular Devices, CA, USA), MS-Excel and Ez-fit. The Percent inhibition was calculated from the formula given below: 100−(OD of test compound/OD of control)×100
The IC50 values were then calculated using the EZ-Fit Enzyme Kinetics program (Perrella Scientific Inc., Amherst, U.S.A.).

In a further assay the target is jack bean urease (Canavalia ensiformis (Jack bean) (Dolichos ensiformis), UniProt P07374). The assay can be described thus: biochemical. The class given is biochemical. Further details: Vmax / Vmaxapp: unit not given here. Conditions: for Type of Inhibition: from Lineweaver-Burk plot; for Vmaxapp / Kmapp: in presence of inhibitor; for Kmapp / Km: substrate urea; for Km / Vmax: without inhibitor. Here is the method:
The Lineweaver-Burk plot was used to determine the type of inhibition, while Dixon plot and secondary replete were used for the determination of dissociation constants (Ki). The Ki, Km, and Vmax were determined by non-linear regression equation. The Ki value was determined from lineweaver-Burk plot. For the calculation of Ki values, initially the 1/Vmaxapp values were determine on y-axis of lineweaver-Burk plot at each junction point of lines of every inhibitor concentration. Secondly the slope of the inhibitor at concentration of each line were determined on Lineweaver-Burk plot and re-plotted against the inhibitor concentrations.
Graphs were plotted using GraFit program. Values of the correlation coefficients, slopes, intercepts, and their standard errors were obtained by the linear regression analysis using the same program. Each point in the constructed graphs represents the mean of the three experiments.
In mixed-type of inhibition, both Km and Vmax are affected.
Three different methods were applied to determine the type of inhibition and Ki values for these inhibitors. Firstly by using Lineweaver-Burk plots the reciprocal of the rate of the reaction were plotted against the reciprocal of substrate concentration to monitor the effect of inhibitor on both Km and Vmax. Secondly the secondary replots of Lineweaver-Burk plots were plotted to determine the Ki value. The Ki values were calculated by plotting the slope of each line in the Lineweaver-Burk plots against the different concentration of inhibitors.

[2] abbreviates: Jack bean urease, pH 6.8, 100 mM urea, 30° C., 15 min, read-out: IC50 ± SEM.
[3] abbreviates: Table 2, jack bean urease, read-out: IC50.
[4] abbreviates: mean of triplicate, read-out: Ki ± S.E.M.

A word on the IC50: it is the concentration at which inhibition is half-maximal. As a reminder, the Ki is the dissociation constant of the complex between target and ligand, obtained from inhibition or displacement. As a reminder, the Km is the substrate concentration at which the rate is half of its maximum.

Entries after “also recorded” stand apart in the source; their conditions may differ. Like-named read-outs stand apart in the source and are kept apart here.

As to `C(=Nc1nc(-c2ccccc2)cs1)c1c[nH]c2ccccc12` [Compound 2, N-[1H-indol-3-yl-methylidene]-N-(4-phenyl-1,3-thiazol-2-yl)amine], the IC50 worked out at 8.56 ± 0.027 µM in assay [1] (setting [2]) and 8.5 µM in assay [1] (setting [3]). This compound gave a Ki on jack bean urease of 9.6 ± 0.0024 µM.
Turning to “N-[4-Methoxyphenyl) methylidene]-N-(4- phenyl-1,3-thiazol-2- yl)amine [Compound 13]”, in assay [1], the “urease inhibitory activity compared with standard thiourea” value is “significant urease inhibitory activity, comparable to standard”.
Turning to “N-[4-(Dimethylamino) phenyl]methylidene}-N- (4-phenyl-1,3-thiazol-2- yl)amine [Compound 14]”, the IC50 in assay [1] (setting [2]) came to 20.36 ± 0.11 µM.
Regarding “N-[4-Nitrophenyl)methyl- idene]-N-(4-phenyl-1,3- thiazol-2-yl)amine [Compound 11]”, the IC50 in assay [1] (setting [2]) amounted to 32.5 ± 0.02 µM. For the same compound, the “urease inhibitory activity compared with standard thiourea” value in assay [1] is recorded as “significant urease inhibitory activity, comparable to standard”.
In the case of “N-[2-Naphthylmethyl- idene]-N-(4-phenyl- 1,3-thiazol-2-yl)amine [Compound 7]”, in assay [1] (setting [2]), the IC50 stood at 9.33 ± 0.02 µM. Besides, in assay [1] (setting [3]), the IC50 worked out at 9.33 µM. Moreover, on jack bean urease, the “Type of Inhibition” value is recorded as “Competitive inhibition”, the Vmaxapp is reported as 29, the Kmapp came out at 6.28 mM and the Km stood at 2250 µM. Moreover, the Vmax at jack bean urease came to 28.8. Besides, at jack bean urease (setting [4]), the Ki was 11.89 ± 0.004 µM.
Turning to “N-(4-Phenyl-1,3- thiazol-2-yl)-N-[4- pyridinylmethyl- idene]amine [Compound 5]”, the IC50 in assay [1] (read-out: IC50) was 7.6 µM. In assay [1] (read-out: IC50 ± SEM), the IC50 is 7.6 ± 0.08 µM. For the same compound, on jack bean urease, the “Type of Inhibition” value was “Competitive inhibition”, the Vmaxapp is 23.5, the Kmapp was 5.09 mM and the Km was 2250 µM. Besides, the Vmax on jack bean urease was 21.64. At jack bean urease (setting [4]), the Ki turned out to be 13.6 ± 0.0123 µM.
Turning to `Oc1ccc(Cl)cc1C=Nc1nc(-c2ccccc2)cs1` [Compound 8, 4-Chloro-2-{[(4-phenyl-1,3-thiazol-2-yl)imino]methyl} phenol], the IC50 was 8.13 ± 0.02 µM in assay [1] (setting [2]) and 8.1 µM in assay [1] (setting [3]). The compound also registered a Ki on jack bean urease of 7.89 ± 0.0142 µM.
For `Oc1ccccc1C=Nc1nc(-c2ccccc2)cs1` [Compound 16, 2-{[(4-Phenyl-1,3-thiazol-2-yl)imino]methyl} phenol], the IC50 in assay [1] (setting [2]) came to 12.4 ± 0.14 µM.
“N-[2,6-Dichloro- phenyl)methylidene]-N-(4- phenyl-1,3-thiazol- 2-yl)amine [Compound 25]”: the IC50 in assay [1] (setting [2]) came out at 22.33 ± 0.11 µM. For the same compound, in assay [1], the “urease inhibitory activity compared with standard thiourea” value is recorded as “significant urease inhibitory activity, comparable to standard”.
Consider `NC(N)=S` [Thiourea, reference compound], for which, on jack bean urease, the “Type of Inhibition” value is listed as “Competitive inhibition”, the Kmapp was found to be 7.38 mM and the Km came out at 2250 µM. In addition, the Ki at jack bean urease (setting [4]) stood at 20.01 ± 0.02 µM.
With “N-[4-(Methylsulfanyl) phenyl]methylidene}-N- (4-phenyl-1,3-thiazol-2- yl)amine [Compound 18]”, the IC50 in assay [1] (setting [2]) stood at 6.96 ± 0.054 µM.
`C(=Nc1nc(-c2ccccc2)cs1)c1cccc2ccccc12` [Compound 21, N-[1-Naphthyl-methylidene]-N-(4-phenyl-1,3-thiazol-2-yl)amine]: in assay [1] (setting [2]), the IC50 was 23.06 ± 0.11 µM.
For “N-[4-Ethoxyphenyl)methyl- idene]-N-(4-phenyl-1,3- thiazol-2-yl)amine [Compound 4]”, the IC50 in assay [1] (setting [3]) was determined as 11.2 µM. For the same compound, at jack bean urease, the “Type of Inhibition” value is “mixed-type; also recorded: Mixed inhibition”, the Vmaxapp was 12.85, the Kmapp turned out to be 2.56 mM and the Km amounted to 2250 µM. Moreover, the Vmax on jack bean urease is recorded as 23.47. Also, the Ki at jack bean urease (setting [4]) is 9.23 ± 0.018 µM.
As to “N-[2-Fluorophenyl) methylidene]-N- (4-phenyl-1,3- thiazol-2-yl)amine [Compound 22]”, the IC50 in assay [1] (setting [2]) was 17.93 ± 0.07 µM.
For the compound `Oc1ccc(C=Nc2nc(-c3ccccc3)cs2)cc1` [Compound 12, 4-{[(4-Phenyl-1,3-thiazol-2-yl)imino]methyl}phenol], in assay [1] (IC50 ± SEM), half-maximal inhibition (IC50) was put at 20.16 ± 0.07 µM.
On to “N-[4-Isopropylphenyl) methylidene]-N-(4- phenyl-1,3-thiazol-2- yl)amine [Compound 9]”, for which the IC50 in assay [1] (setting [2]) was found to be 14.5 ± 0.16 µM. In addition, the IC50 in assay [1] (setting [3]) was 14.5 µM. For the same compound, at jack bean urease, the “Type of Inhibition” value is given as “mixed-type; also recorded: Mixed inhibition”, the Vmaxapp came out at 8.72, the Kmapp came to 3.22 mM and the Km is 2200 µM. Further, on jack bean urease, the Vmax was 19. The Ki on jack bean urease (setting [4]) was found to be 12.39 ± 0.0168 µM.
Consider `CCOc1cccc(C=Nc2nc(-c3ccccc3)cs2)c1O` [Compound 3, 2-Ethoxy-6-{[(4-phenyl-1,3-thiazol-2-yl)imino]methyl}phenol], for which the IC50 in assay [1] (IC50) was 7.9 µM; in assay [1] (IC50 ± SEM), 7.9 ± 0.08 µM. In addition, the Ki at jack bean urease was found to be 9.7 ± 0.007 µM.
With “N-[Phenylmethyl- idene]-N-(4-phenyl- 1,3-thiazol-2-yl) amine [Compound 19]”, the IC50 in assay [1] (setting [2]) was found to be 16.76 ± 0.054 µM.
Take `COc1cccc(C=Nc2nc(-c3ccccc3)cs2)c1O` [Compound 6, 2-Methoxy-6-{[(4-phenyl-1,3-thiazol-2-yl)imino]methyl} phenol]: the midpoint of inhibition in assay [1] (IC50), the IC50, lay at 8.8 µM. At jack bean urease, this compound yielded a Ki of 8.22 ± 0.0233 µM.
On to “N-[4-Chlorophenyl) methylidene]-N-(4-phenyl- 1,3-thiazol-2-yl)amine [Compound 26]”, for which the IC50 in assay [1] (setting [2]) is 19 ± 0.04 µM.
In assay [1] (IC50 ± SEM), `Oc1cccc(C=Nc2nc(-c3ccccc3)cs2)c1O` [Compound 23, 3-{[(4-Phenyl-1,3-thiazol-2-yl)imino]methyl}-1,2-benzenediol] displayed an IC50 of 19.63 ± 0.19 µM.
For `Cc1ccc(C=Nc2nc(-c3ccccc3)cs2)o1` [Compound 10, N-[(5-Methyl-2-furyl)methylidene]-N-(4-phenyl-1,3-thiazol-2-yl)amine], the IC50 in assay [1] (setting [2]) is 17.83 ± 0.07 µM; in assay [1] (setting [3]), 17.8 µM. This compound registered a Ki at jack bean urease of 14.82 ± 0.0109 µM.
Consider “N-[2-Chloro- phenyl)methylidene]- N-(4-phenyl-1,3- thiazol-2-yl) amine [Compound 20]”, for which, in assay [1] (setting [2]), the IC50 stood at 13.03 ± 0.02 µM.

The values above are taken from patent US9447057B2, “Schiff bases of thiazoles: a new class of ureases inhibitors” (priority 2014, dated 2016).
